This note sets out measurements from US20130065959A1, “SANITIZING MEAT WITH PERACID AND 2-HYDROXY ORGANIC ACID COMPOSITIONS” (Fresh Express Incorporated, priority 2009, published 2013).

Holding throughout (type): cell-based
Experiment [1] has as its system E. coli K-12 (ATCC 25253). The experiment can be described thus: Attached cells on chicken wing skin (Example 8). As to conditions: Middle chicken wing skin, 10.5 min. The procedure: (§1) Inoculum preparation: ATCC freeze dried culture was rehydrated in 10 mL of sterilized TSB and mixed homogeneously. 0.1 mL of the stock solution was transferred to 10 mL of TSB and incubated at 37C for 24 h. Enrichment was streaked to confirm purity. 2 mL of the enriched stock was transferred to 200 mL of TSB and incubated at 37C for 24 h for E. coli K-12 (ATCC 25253) (EC) resulting in ˜10^8 cfu/mL stationary phase culture stock. The stock was cooled at 4C for 1 h. Microbial population of the stationary phase stock culture was enumerated by means of serial dilution with 9-mL Butterfield phosphate buffer tubes and spread plating on Tryptic Soy Agar (TSA) pre-poured agar plates for EC
Chicken wing surface inoculation: The 200 mL ˜10^8cfu/mL stock culture solution was homogeneously mixed by shaking and swirling the Erlenmeyer flask. The 200 mL culture was separated into 4 centrifuge tubes (50 mL each) and centrifuged at 10,000 rpm and 4C for 15 min. The stock culture pellet was re-suspended with 5 mL of 5% Horse Serum. All the re-suspended cultures from the four centrifuge tubes were combined to form 20 mL˜10^9 cfu/mL inoculating stock culture. The chicken middle wing was pat dried by paper towel. A permanent marker was used to mark a 2.5 cm×2.5 cm square at the middle of the flat surface of the chicken wing for inoculation. 50 uL inoculum in the form of 2 uL droplets were spiked onto the marked square on the chicken wing skin. The inoculated chicken wing was placed into a sterile polypropylene basket. The spiked chicken wing inside the polypropylene basket was dried inside a biological safety cabinet for 120 min at 18 to 24C.
Treatment of inoculated chicken wing: Each sample of inoculated chicken wing was placed into a 2.5L stomacher bag containing 500 mL of the tested solution for 10 minutes with intermittent 30 s-shakings at 0, 4, and 9 min. The tested solutions included city water, lactic acid solution (LA), peracetic acid solution (PA), and FreshRinse solution (FR). The treated chicken wing was immediately removed from the treatment solution after 10 min and placed into a sterilized Petri-dish with the marked side facing up. A pre-wet sterilized swab dipped in 10 mL Butterfield phosphate buffer with sodium thiosulfate was used to swab the marked area. After swabbing the cotton wool swab was immediately placed back into the 10 mL Butterfield phosphate buffer with sodium thiosulfate and mixed. One mL was immediately transferred from the aforementioned tube to a 9 mL Butterfield phosphate buffer. The total treatment time including the exposure time, the swabbing time, and the transfer time was 10.5 min. Each solution treatment was performed in duplications. The reduction for each solution treatment was compared to that of the city water treatment

The test system of experiment [2] is E. coli K-12 (ATCC 25253). The experiment can be described thus: Attached cells on vegetable and fruit surface (Example 7). As to conditions: 45 sec. The procedure: as §1, with “of sterilized tryptic soy broth and mixed” for “of sterilized TSB and mixed”, “24 h and 36 h, respectively for E.” for “24 h for E.”, “25253) (EC) and Listeria innocua (ATCC 33090) (LI) resulting in” for “25253) (EC) resulting in”, “was cooled for at 4C” for “was cooled at 4C”, “for EC or Modified Oxford Agar (MOX) pre-poured agar plates for LI.” for “for EC”
(§2) Vegetable and fruit surface inoculation: The 200 mL˜10^8 cfu/mL stock culture solution was homogeneously mixed by shaking and swirling the Erlenmeyer flask. The 200 mL culture was separated into 4 centrifuge tubes (50 mL each) and centrifuged at 10,000 rpm and 4C for 15 min. The stock culture pellet was re-suspended with 5 mL of 5% Horse Serum. All the re-suspended cultures from the four centrifuge tubes were combined to form 20 mL˜10^9 cfu/mL inoculating stock culture. The outer peel or surface of the test vegetable and fruit was cut into 5cm×2.5 cm pieces or diced into […] cubes in the case of tomatoes for inoculation. 50 uL inoculum in the form of 2 uL droplets were spiked onto the strawberry, and diced tomato surface while 100 uL in the form of 2 uL droplets were inoculated onto the potato peel. The spiked surfaces or peels were placed in a biological safety cabinet for 60 min at 18 to 24C for drying.
(§3) Treatment of inoculated vegetable and fruit surfaces: Each sample of inoculated vegetable or fruit surface was placed into a 2.5L stomacher bag containing 500 mL of the tested solution and shook vigorously for 45 s. The tested solutions included city water, lactic acid solution (LA), peracetic acid solution (PA), and FreshRinse solution (FR). The treated vegetable or fruit surface was immediately transferred into a sterile stomacher bag containing 100 mL of Butterfield phosphate buffer with 1 sodium thiosulfate pellet at the end of the 45 s treatment. Each solution treatment was performed in duplications. The reduction for each solution treatment was compared to that of the city water treatment.

Experiment [3] has as its system Listeria innocua (ATCC 33090). The experiment is described as above. As to conditions: Whole Strawberry, 45 sec. The procedure:
as §1, with “of sterilized tryptic soy broth and mixed” for “of sterilized TSB and mixed”, “24 h and 36 h, respectively for E.” for “24 h for E.”, “25253) (EC) and Listeria innocua (ATCC 33090) (LI) resulting in” for “25253) (EC) resulting in”, “was cooled for at 4C” for “was cooled at 4C”, “for EC or Modified Oxford Agar (MOX) pre-poured agar plates for LI.” for “for EC”
as §2, §3

The test system of the next experiment is E. coli K12. The experiment can be described thus: Attached cells challenge test on produce leaves (Example 1).

As to `CC(O)C(=O)O` (stereo not shown) [Lactic Acid, lactic acid], the Log reductions was determined as 0.3 in experiment [1] (PA 0 ppm, LA 5,000 ppm); 0.7 in experiment [1] (PA 0 ppm, LA 10,000 ppm); 0.1 in experiment [2] (Diced Tomato, PA 0 ppm, LA 1,500 ppm); 0.0 in experiment [2] (Diced Tomato, PA 0 ppm, LA 3,000 ppm); 0.1 in experiment [2] (Potato peel, PA 0 ppm, LA 1,500 ppm); 0.0 in experiment [2] (Potato peel, PA 0 ppm, LA 3,000 ppm). The Log reductions is on record as 0.0 in experiment [3] (PA 0 ppm, LA 1,500 ppm) and 0.5 in experiment [3] (PA 0 ppm, LA 3,000 ppm). The “Log reduction, attached cells” value in the experiment with E. coli K12 (Romaine, PAA 0 ppm, LA 0.6%) came out at 0.24; with E. coli K12 (Romaine, PAA 0 ppm, LA 0.9%) it was 0.37; in the experiment on E. coli K12 (Romaine, PAA 0 ppm, LA 1.2%), 1.28; with E. coli K12 (Spinach, PAA 0 ppm, LA 0.6%) it was 0.09; with E. coli K12 (Spinach, PAA 0 ppm, LA 0.9%) it was 0.42; with E. coli K12 (Spinach, PAA 0 ppm, LA 1.2%), 0.81.
As to `CC(=O)OO` [Peroxyacetic acid, peroxyacetic acid], the Log reductions in experiment [1] (PA 40 ppm, LA 0 ppm) worked out at 0.6; in experiment [1] (PA 60 ppm, LA 0 ppm) it was 0.5; in experiment [1] (PA 80 ppm, LA 0 ppm) it was 1.0; in experiment [2] (Diced Tomato, PA 60 ppm, LA 0 ppm), 0.6; in experiment [2] (Diced Tomato, PA 80 ppm, LA 0 ppm) it was 0.7; in experiment [2] (Potato peel, PA 60 ppm, LA 0 ppm), 1.0. Moreover, the Log reductions was 1.2 in experiment [2] (Potato peel, PA 80 ppm, LA 0 ppm) and 1.1 in experiment [3] (PA 50 ppm, LA 0 ppm). In addition, the “Log reduction, attached cells” value in the experiment with E. coli K12 (Romaine, PAA 60 ppm, LA 0.0%) was determined as 0.26; in the experiment with E. coli K12 (Romaine, PAA 70 ppm, LA 0.0%), 0.53; in the experiment with E. coli K12 (Romaine, PAA 80 ppm, LA 0.0%) it was 1.18; in the experiment with E. coli K12 (Spinach, PAA 60 ppm, LA 0.0%), 0.69; in the experiment on E. coli K12 (Spinach, PAA 70 ppm, LA 0.0%), 1.33; in the experiment on E. coli K12 (Spinach, PAA 80 ppm, LA 0.0%), 2.46.
